We go through 35 molecules from a melting point compilation (Tetko et al.; mined from patent text by program, amines drawn as free bases though some values may be those of a salt).

For the molecule `COc1c(-c2ccc3cc(NS(C)(=O)=O)ccc3c2)cc(-n2ccc(=O)[nH]c2=O)cc1-c1ccc(C)o1`, the melting point is 174 to 178 °C.

In turn, `CC(=O)OCC1OC(OC2OC(CO)C(O)C(O)C2O)C(OC(C)=O)C(OC(C)=O)C1OC(C)=O` (stereo not given) showed a melting point of 120 °C.

As for `Nc1cc(C(O)=S)cc(Cc2ccccc2)c1C(=O)c1ccccc1`, the melting point is 141 to 142 °C.

Regarding `O=C(c1ccccc1)N1Cc2c(-c3noc(C4CC4)n3)ncn2-c2cccc(F)c21`, the melting point was 234 to 236 °C.

Molecule `Cc1cccc(NC(=O)OCC2CCCCN2C)c1` (stereo not given) showed a melting point of 73.5 to 75.5 °C.

The molecule `COc1cc(Cl)cc2c1OC(C)(COS(=O)(=O)c1ccc(C)cc1)C2` (stereo not given) displayed a melting point of 113 to 115 °C.

In turn, `CC#CNC(=O)NC(=NC(=O)N(C)C)SC` came in with a melting point of 88 to 91 °C.

`N=C(N)Nc1nc(CSCCC(N)=O)cs1` showed a melting point of 193 to 194 °C.

Molecule `[O-][N+]1=C(c2ccccc2)c2cc(Cl)ccc2C=CC1` gave a melting point of 122 to 123 °C.

In the case of `Fc1cc(Br)ccc1CSc1nc2cnccc2[nH]1`, the melting point was 204 to 206 °C.

As to `Cc1nc(CC2(C)CCN(c3ccc(F)cc3)CC2)nc(C(=O)NCC(=O)O)c1O`, the melting point lay in the range of 140 to 141 °C.

Take `O=[N+]([O-])c1ccccc1-c1nnc(-c2ccc(C3OCCO3)cc2)o1`: the melting point is 88 to 89 °C.

Regarding `O=C(O)c1cn([C@@H]2C[C@@H]2F)c2c(Cl)c(Cl)ccc2c1=O`, the melting point fell in the range of 198 to 201 °C.

`CCCCCCCCCCCCCCCCOCC(CO)OCOC(c1ccccc1)(c1ccccc1)c1ccccc1` (stereo not given) yielded a melting point of 38 °C.

In the case of `CN(C)c1nn(-c2cc(F)c(C#N)cc2F)c(=O)n1C`, the melting point lay in the range of 131 to 133 °C.

As to `COC(=O)Cc1ccc(OCCNC(=O)C2Cc3ccccc3N2S(=O)(=O)c2ccc(-c3cc(C)ccc3C)cc2)cc1` (stereo not given), the melting point lay in the range of 56 to 59 °C.

`CC(C)(C)OC(=O)CONC(=O)c1ccc(C(=O)C(C)(C)C)cc1`: the melting point lay within 87 to 88 °C.

`Cc1nn(-c2ccccn2)c2nc3ccccc3c(C)c12`: the melting point is 157 to 159 °C.

`CCOC(=O)C1=CC2(CCC1S(=O)(=O)Nc1ccc(F)cc1Cl)OCCCCO2` (stereo not given) returned a melting point of 142 to 144 °C.

The molecule `CCC(=O)OCc1c(C)cc([N+](=O)[O-])c(NC(CC)CC)c1[N+](=O)[O-]` registered a melting point of 27 to 29 °C.

Regarding `CCOCCN(CCOCC)NC(=O)NS(=O)(=O)c1ccc(Cl)cc1`, the melting point fell in the range of 84.5 to 85.5 °C.

As to `CCCCCC1(O)CCC2(C)C(CCC3C4CCC(C5(C)OCCO5)C4(C)CC(=O)C32)C1` (stereo not given), the melting point stood at 106 °C.

As to `CC1CN(c2nc(Cl)nc(C(C)O)n2)CC(C)N1` (stereo not given), the melting point was in the range of 126 to 128 °C.

For the molecule `Clc1cc(Cl)nc(NC2CCCC2)n1`, the melting point lay within 48 to 52 °C.

As to `Cn1cc(S(C)(=O)=O)c(=O)c2sccc21`, the melting point lay in the range of 258 to 261 °C.

The molecule `Cc1cc(NC(=O)C(=O)N2C(C)COCC2C)cc(C)c1S(=O)(=O)C[N+](=O)[O-]` (stereo not given) came in with a melting point of 140 to 141 °C.

`CC(C)(C)OC(=O)N[C@@H]1CN(C2CCCCC2)c2ccccc2NC1=O` gave a melting point of 156 to 159 °C.

`CCOc1ccccc1NC=C1C(=O)N(c2ccc(S(=O)(=O)N3CCCCC3)cc2)N=C1C` returned a melting point of 252 °C.

`CN(C)Cc1c[nH]c2ncccc12` showed a melting point of 161 to 162 °C.

Turning to `CC(=O)c1ccccc1NC(=O)Cc1ccccc1`, the melting point was found to be 78 °C.

In the case of `COc1cc(C)cc(C(O)=S)c1OC`, the melting point is 139 to 141 °C.

On to `CSc1ccc(C(=O)CC(=O)C2CC2)c2c1OC(F)(F)O2`, for which the melting point was in the range of 46 to 47 °C.

`NS(=O)(=O)c1cccc(-c2cn(-c3cc(-c4ccc(C(F)(F)F)cc4)cc(C(F)(F)F)n3)cn2)c1` gave a melting point of over 250 °C.

As to `CC(C)C(=O)NC1CCc2[nH]c3cc4c(cc3c2C1)OCO4` (stereo not given), the melting point was in the range of 198 to 200 °C.

`O=C(O)Cc1ccc2[nH]c(=O)[nH]c2c1`: the melting point worked out at 161 °C.
